Data published in the supplement of paper PMC10307832.

What was measured:
Assay in all cases: relative viability (nuclei count vs DMSO), 5 days (fraction); higher = more cells survive
MK-2206 + Trametinib = compound: NC1(c2ccc(-c3nc4ccn5c(=O)[nH]nc5c4cc3-c3ccccc3)cc2)CCC1 [MK-2206] + CC(=O)Nc1cccc(-n2c(=O)n(C3CC3)c(=O)c3c(Nc4ccc(I)cc4F)n(C)c(=O)c(C)c32)c1 [Trametinib] (partner 0.02 µM)
In short: (§1)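 One day after seeding in 1536-well plates, lung cancer cell lines were dosed by pin tool. Dosing was either single-drug or a fixed anchor-drug dose plus five library-drug doses (not always all listed) in √10 steps. After 5 days, nuclei were stained in one fix-and-stain step and counted on 4× images, and relative viability is the nuclei count of treated wells over that of vehicle wells, given as the median of duplicate plates.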

Pictilisib + OSI-027 = compound: CS(=O)(=O)N1CCN(Cc2cc3nc(-c4cccc5[nH]ncc45)nc(N4CCOCC4)c3s2)CC1 [Pictilisib] + COc1cccc2cc(-c3nc([C@H]4CC[C@H](C(=O)O)CC4)n4ncnc(N)c34)[nH]c12 [OSI-027] (partner 0.5 µM)
In short: as §1

Pictilisib + Dasatinib = compound: CS(=O)(=O)N1CCN(Cc2cc3nc(-c4cccc5[nH]ncc45)nc(N4CCOCC4)c3s2)CC1 [Pictilisib] + Cc1nc(Nc2ncc(C(=O)Nc3c(C)cccc3Cl)s2)cc(N2CCN(CCO)CC2)n1 [Dasatinib] (partner 0.075 µM)
In short: as §1

MK-2206 + Phenformin = compound: NC1(c2ccc(-c3nc4ccn5c(=O)[nH]nc5c4cc3-c3ccccc3)cc2)CCC1 [MK-2206] + N=C(N)NC(=N)NCCc1ccccc1 [Phenformin] (partner 250 µM)
In short: as §1

Pictilisib + Decitabine = compound: CS(=O)(=O)N1CCN(Cc2cc3nc(-c4cccc5[nH]ncc45)nc(N4CCOCC4)c3s2)CC1 [Pictilisib] + Nc1ncn([C@H]2C[C@H](O)[C@@H](CO)O2)c(=O)n1 [Decitabine] (partner 2 µM)
In short: as §1

| Cell Line | relative viability (MK-2206 + Trametinib; first compound 0.01 µM) | relative viability (MK-2206 + Trametinib; first compound 0.03162 µM) | relative viability (MK-2206 + Trametinib; first compound 0.3162 µM) | relative viability (MK-2206 + Trametinib; first compound 1 µM) | relative viability (Pictilisib + OSI-027; first compound 0.02 µM) | relative viability (Pictilisib + OSI-027; first compound 0.06325 µM) | relative viability (Pictilisib + OSI-027; first compound 0.6325 µM) | relative viability (Pictilisib + OSI-027; first compound 2 µM) | relative viability (Pictilisib + Dasatinib; first compound 0.02 µM) | relative viability (Pictilisib + Dasatinib; first compound 0.06325 µM) | relative viability (Pictilisib + Dasatinib; first compound 0.6325 µM) | relative viability (Pictilisib + Dasatinib; first compound 2 µM) | relative viability (MK-2206 + Phenformin; first compound 0.01 µM) | relative viability (MK-2206 + Phenformin; first compound 0.03162 µM) | relative viability (MK-2206 + Phenformin; first compound 0.3162 µM) | relative viability (MK-2206 + Phenformin; first compound 1 µM) | relative viability (Pictilisib + Decitabine; first compound 0.02 µM) | relative viability (Pictilisib + Decitabine; first compound 0.06325 µM) | relative viability (Pictilisib + Decitabine; first compound 0.6325 µM) | relative viability (Pictilisib + Decitabine; first compound 2 µM) |
| --- | --- | --- | --- | --- | --- | --- | --- | --- | --- | --- | --- | --- | --- | --- | --- | --- | --- | --- | --- | --- |
| EKVX | 0.326 | 0.398 | 0.275 | 0.289 | 0.697 | 0.352 | 0.561 | 0.269 | 0.534 | 0.414 | 0.303 | 0.16 | 0.24 | 0.245 | 0.204 | 0.256 | 0.318 | 0.334 | 0.249 | 0.195 |
| HCC-827 | 0.541 | 0.548 | 0.491 | 0.444 | 0.824 | 0.696 | 0.338 | 0.192 | 0.357 | 0.242 | 0.183 | 0.136 | 0.45 | 0.434 | 0.402 | 0.326 | 0.258 | 0.363 | 0.288 | 0.311 |
| NCI-H1755 | 0.756 | 0.768 | 0.671 | 0.699 | 0.684 | 0.666 | 0.41 | 0.279 | 0.406 | 0.415 | 0.246 | 0.187 | 0.68 | 0.632 | 0.551 | 0.587 | 0.743 | 0.667 | 0.748 | 0.565 |
| NCI-H661 | 0.573 | 0.712 | 0.603 | 0.503 | 0.687 | 0.682 | 0.499 | 0.261 | 0.942 | 0.878 | 0.439 | 0.304 | 0.252 | 0.289 | 0.257 | 0.255 | 0.546 | 0.58 | 0.523 | 0.412 |
| NCI-H1944 | 0.405 | 0.41 | 0.392 | 0.385 | 0.403 | 0.345 | 0.249 | 0.179 | 0.231 | 0.186 | 0.164 | 0.173 | 0.197 | 0.217 | 0.169 | 0.185 | 0.423 | 0.352 | 0.391 | 0.315 |
| NCI-H23 | 0.267 | 0.342 | 0.345 | 0.299 | 0.708 | 0.625 | 0.392 | 0.25 | 0.864 | 0.863 | 0.487 | 0.234 | 0.688 | 0.844 | 0.673 | 0.666 | 0.305 | 0.333 | 0.309 | 0.271 |
| NCI-H1648 | 0.491 | 0.497 | 0.591 | 0.497 | 0.256 | 0.248 | 0.275 | 0.266 |  |  |  |  |  |  |  |  | 0.528 | 0.469 | 0.367 | 0.319 |
| NCI-H522 | 0.817 | 0.746 | 0.635 | 0.672 | 0.635 | 0.719 | 0.64 | 0.57 | 0.75 | 0.984 | 0.79 | 0.664 | 0.605 | 0.681 | 0.627 | 0.613 | 0.66 | 0.609 | 0.657 | 0.607 |
| HCC-366 | 0.302 | 0.384 | 0.204 | 0.223 | 0.955 | 0.822 | 0.432 | 0.104 | 0.537 | 0.566 | 0.193 | 0.0747 | 0.614 | 0.686 | 0.564 | 0.39 | 0.335 | 0.304 | 0.194 | 0.114 |
| ChaGo-K-1 | 0.894 | 0.867 | 0.881 | 0.904 | 0.586 | 0.626 | 0.411 | 0.314 | 0.628 | 0.682 | 0.517 | 0.384 | 0.524 | 0.488 | 0.46 | 0.497 | 0.526 | 0.51 | 0.491 | 0.495 |
| NCI-H1623 |  |  |  |  | 0.431 | 0.414 | 0.342 | 0.244 | 0.55 | 0.487 | 0.472 | 0.251 | 0.555 | 0.592 | 0.574 | 0.605 |  |  |  |  |
| HCC-44 | 0.927 | 1.02 | 1.11 | 1.04 | 0.587 | 0.5 | 0.405 | 0.266 |  |  |  |  | 0.184 | 0.184 | 0.152 | 0.107 | 0.92 | 0.958 | 0.926 | 0.94 |
| CAL-12T | 0.406 | 0.307 | 0.307 | 0.313 | 0.8 | 0.642 | 0.339 | 0.167 | 0.352 | 0.3 | 0.141 | 0.0923 | 0.492 | 0.561 | 0.626 | 0.564 |  |  |  |  |
| A549 |  |  |  |  |  |  |  |  |  |  |  |  | 0.173 | 0.152 | 0.203 | 0.124 | 0.256 | 0.289 | 0.259 | 0.22 |
| NCI-H1563 |  |  |  |  | 0.737 | 0.713 | 0.554 | 0.57 | 0.431 | 0.39 | 0.356 | 0.316 | 0.625 | 0.601 | 0.606 | 0.616 |  |  |  |  |
